Assay results as given in patent publication US9096550B2, “Bryostatin analogues and methods of making and using thereof” (UNIVERSITY OF UTAH RESEARCH FOUNDATION, priority 2008, dated 2015).

Columns and labels:
C3H10T1/2 cells = experiment: Release of arachidonic acid from C3H10T1/2 cells; type: cell-based, mouse; conditions: % of the maximal PMA-induced response relative to the DMSO control, 2 hour treatment
Method: FIGS. 15A and 15B show the release of arachidonic acid from treated C3H10T1/2 cells. The cells were labeled with [^3H]arachidonic acid for 18 hrs, treated with DMSO as control, different concentrations of PMA (0.1-100 nM), bryostatin 1 (1-1000 nM), the bryologues (1-1000 nM) (A) or 100 nM PMA in combination with 1000 nM bryostatin 1, or the bryologues MERLE 21, 22, 23. The radioactive arachidonic acid released into the medium was quantitated after 2 hour treatment. The response of 100 nM PMA was taken as 100%. Data represent the means+SEM of four (FIG. 15A) or three (FIG. 15B) independent experiments.
C3H10T1/2 cells (ATCC, Manassas, Va.) were plated in 24 well plates and treated with different drugs or with DMSO as control. The release of arachidonic acid after 2 hour treatment was measured as described previously (Dell′Aquila M L, Herald C L, Kamano Y, Pettit G R, Blumberg P M. Differential effects of byrostatins and phorbol esters on arachidonic acid metabolite release and epidermal growth factor binding in C3H10T1/2 cells. Cancer Res 1988; 48: 3702-3708).

LNCaP cells = experiment: Proliferation of LNCaP cells (Incucyte confluency); type: cell-based, human; conditions: 300 nM PMA combined with 1000 nM compound, 80 hrs
Method: FIGS. 12A-D show the effect of different compounds on the proliferation and apoptosis of LNCaP cells. […] Time-elapsed images were taken with an Incucyte imaging system every hour for 4 days. The proliferation of LNCaP cells is presented as increase in confluency (read by the instrument) at 80 hrs. Data represent the means+SEM of three independent experiments. […] Apoptosis was measured 2 days after treatment by flow cytometry using 7-AAD and Yo-Pro-1 as described in Materials and Methods. Data represent the means+SEM of three independent experiments.
FIGS. 13A and 13B show the proliferation and morphology of LNCaP cells detected by Incucyte. LNCaP cells were treated with DMSO as control, 300 nM PMA, 1000 nM bryostatin 1 or the bryologue MERLE 21, or with 300 nM PMA in combination with 1000 nM bryostatin 1 or the bryologue MERLE 21. Time-elapsed images were taken by the Incucyte imaging system every hour. […] The arrow indicates the time of treatment. Data are representative of three independent experiments.
The extent of confluency of LNCaP cells (from ATCC, Manassas, Va.) and the morphological changes after treatment were followed in real time using Incucyte (Essen Instruments, Ann Arbor, Mich.). Images of LNCaP cells plated into 24 well plates were taken every 1 hour by the instrument before and after treatment for a total of 4 days. The confluency of the cells was calculated by the instrument's program. The proliferation of LNCaP cells was expressed as the difference in cell confluency before and after treatment.

U937 cells [1] = experiment: Attachment of U937 cells; type: cell-based, human
Method: (§1) U937 cells (Sundstrom, C.; Nilsson, K.: Establishment and characterization of a human histiocytic lymphoma cell line (U-937). Int. J. Cancer 1976, 17: 565-577.), purchased from ATCC (Manassas, Va.) and cultured in RPMI-1640 medium supplemented with 10% FBS (ATCC, Manassas, Va.), were plated in 35 mm dishes at a density of 2×10^5 living cells/ml and treated with different concentrations of the drugs or DMSO. After 72 hours, the number of cells in the supernatant (non-attached cells) and the number of attached cells (after trypsinization) were counted using a Beckman particle counter (Beckman Coulter Inc., Fullerton, Calif.). The number of attached cells is expressed as percent of total cells (FIGS. 8-10).
U937 cells were treated with PMA (0.1-100 nM), bryostatin 1 (1-1000 nM), the indicated compound (1-1000 nM), 10 nM PMA with different concentrations of bryostatin 1 (1-1000 nM) or 10 nM PMA with different concentrations of indicated compound (1-1000 nM) for 72 hours. The number of attached cells and total cells were counted and the attached cells were graphed as percent of total cells. The bars and error bars represent the average and the standard error of the mean of five independent experiment (FIGS. 8-10).
(§2) U937 cells (Sundstrom and Nilsson, 1976), purchased from ATCC (Manassas, Va.) and cultured in RPMI-1640 medium supplemented with 10% FBS (ATCC, Manassas, Va.), were plated in 35 mm dishes at a density of 1×10^5 living cells/ml and treated with different concentrations of the drugs or DMSO. After 72 hours, the number of cells in the supernatant (non-attached cells) and the number of attached cells (after trypsinization) were counted using a particle counter. The number of attached cells is expressed as percent of total cells.
U937 cells were treated with PMA (0.01-100 nM), bryostatin1 (0.1-1000 nM), analogue 12 (MERLE 28) (0.1-1000 nM), 10 nM PMA with different concentrations of bryostatin 1 (0.1-1000 nM) or 10 nM PMA with different concentrations of analogue 12 (0.1-1000 nM). The number of attached cells and total cells were counted and the attached cells were graphed as percent of total cells. The bars and error bars represent the average and the standard error of the mean of at least three independent experiments.
(§3) U-937 cells (Sundstrom and Nilsson, 1976), purchased from ATCC (Manassas, Va.) and cultured in RPMI-1640 medium supplemented with 10% FBS (ATCC, Manassas, Va.), were plated in 35 mm dishes at a density of 1×10^5 living cells/ml and treated with different concentrations of the drugs or DMSO. After 72 hours, the number of cells in the supernatant (non-attached cells) and the number of attached cells (after trypsinization) were counted using a particle counter. The number of attached cells is expressed as percent of total cells.
U-937 cells were treated with PMA (0.1-100 nM), bryostatin 1 (1-1000 nM), the indicated compound (1-1000 nM), 10 nM PMA with different concentrations of bryostatin 1 (1-1000 nM) or 10 nM PMA with different concentrations of indicated compound (1-1000 nM) for 72 hours. The number of attached cells and total cells were counted and the attached cells were graphed as percent of total cells. The bars and error bars represent the average and the standard error of the mean of at least three independent experiments.

U937 cells [2] = experiment: Inhibition of U937 cell proliferation; type: cell-based, human
Method: as §1
U937 cells were treated with PMA (0.1-100 nM), bryostatin 1 (1-1000 nM), the indicated compound (1-1000 nM), 10 nM PMA with different concentrations of bryostatin 1 (1-1000 nM) or 10 nM PMA with different concentrations of indicated compound (1-1000 nM). The number of attached and non-attached cells was counted and the number of total cells was expressed as % of control. The bars and error bars represent the average and the standard error of the mean of five independent experiments (FIGS. 8-10).
as §2
U937 cells were treated with PMA (0.01-100 nM), bryostatin1 (0.1-1000 nM), analogue 12 (0.1-1000 nM), 10 nM PMA with different concentrations of bryostatin 1 (0.1-1000 nM) or 10 nM PMA with different concentrations of analogue 12 (0.1-1000 nM). The numbers of attached and non-attached cells were counted and the number of total cells was expressed as % of control. The bars and error bars represent the average and the standard error of the mean of at least three independent experiments.
as §3
U-937 cells were treated with PMA (0.1-100 nM), bryostatin 1 (1-1000 nM), the indicated compound (1-1000 nM), 10 nM PMA with different concentrations of bryostatin 1 (1-1000 nM) or 10 nM PMA with different concentrations of indicated compound (1-1000 nM). The number of attached and non-attached cells was counted and the number of total cells was expressed as % of control. The bars and error bars represent the average and the standard error of the mean of at least three independent experiments.

[3] = 10 nM PMA with different concentrations of compound

SMILES | arachidonic acid release, average level of response (C3H10T1/2 cells) [%] | block of the PMA inhibition of LNCaP cell growth (LNCaP cells) | block of PMA-induced attachment of U937 cells (U937 cells [1]; [3]) | attachment of U937 cells (U937 cells [1]; compound alone, 72 hours) | block of PMA inhibition of U937 cell proliferation (U937 cells [2]; [3]) | inhibition of U937 cell proliferation (U937 cells [2]; compound alone)
C=C1C[C@@H]2C[C@@H]3CC(=C)C[C@H](/C=C/C(C)(C)[C@]4(O)O[C@@H](C/C(=C\C(=O)OC)[C@@H]4OC(=O)CCCCCCC)C[C@H]([C@@H](C)O)OC(=O)C[C@H](O)C[C@H](C1)O2)O3 [MERLE 22] | 69 | did not appear to quite reach the level observed for bryostatin 1 | – | – | – | –
C=C1C[C@@H]2C[C@@H]3CC(=C)C[C@H](/C=C/C(C)(C)[C@]4(O)O[C@@H](C/C(=C\C(=O)OC)[C@@H]4OC(=O)/C=C/C=C/CCC)C[C@H]([C@@H](C)O)OC(=O)C[C@H](O)C[C@H](C1)O2)O3 [MERLE 23] | 64 | did not appear to quite reach the level observed for bryostatin 1 | – | – | – | –
C=C1C[C@H]2CC3(O)O[C@H](C[C@@H](O)CC(=O)O[C@@H]([C@@H](C)O)C[C@@H]4C/C(=C\C(=O)OC)[C@H](OC(=O)/C=C/C=C/CCC)[C@@](O)(O4)C(C)(C)/C=C/[C@@H](C1)O2)C[C@H](OC(C)=O)C3(C)C [MERLE 28] | – | – | functional antagonist of PMA and blocks the effect of the phorbol ester | approaches that of bryostatin 1 itself | Both of these aspects of bryostatin 1 induced biological response are captured | very similar to those for bryostatin 1
C=C1C[C@@H]2C[C@@H]3CC(=C)C[C@H](/C=C/C(C)(C)[C@]4(O)O[C@@H](C/C(=C\C(=O)OC)[C@@H]4OC(=O)c4ccccc4)C[C@H]([C@@H](C)O)OC(=O)C[C@H](O)C[C@H](C1)O2)O3 [MERLE 21] | 73 | did not appear to quite reach the level observed for bryostatin 1 | – | – | – | –
